Conditions: rat, in vivo
Method: Non self-emulsifying tocotrienol oily suspension was prepared by mixing tocotrienols rich fraction (TRF) and palm olein at a ratio of 1:1. The total tocotrienol administered per rat was equivalent to 10 mg/kg body weight. The single dose of ketoconazole (suspension in water) was administered at a dose of 32 mg/kg body weight.
The rats were fasted overnight for at least 12 hours before the study. During Phase 1, the rats in Group 1 were given only the tocotrienol oily suspension while Group 2 were given a single dose of ketoconazole half an hour prior to administration of tocotrienol. Phase 2 was carried out after 1 week of wash-out period. Blood samples were taken from the tail vein according to the following predetermined sampling interval. The blood levels of individual tocotrienol isomers at each time point was analysed using HPLC assay.

- Increase in bioavailability compared with Control, Alpha-tocotrienol: 2.1-fold
- Increase in bioavailability compared with Control, Delta-tocotrienol: 2.6-fold
- Increase in bioavailability compared with Control, Gamma-tocotrienol: 3.0-fold
- Enhancement of bioavailability of tocotrienols compared to without ketoconazole (po): 2-3 folds
SMILES: CC(=O)N1CCN(c2ccc(OCC3COC(Cn4ccnc4)(c4ccc(Cl)cc4Cl)O3)cc2)CC1 (stereo not shown) [Ketoconazole, ketoconazole]
